The values that follow come from patent publication US20260356819A1, “OXOISOINDOLINYL-SUBSTITUTED […] DERIVATIVE AND USE THEREOF” (GLUETACS THERAPEUTICS (SHANGHAI) CO., LTD., priority 2023, published 2026).

Holding throughout (format): cell-based
What all share (settings): compounds at 50 nM and 500 nM

One assay deals with T1, CK1α (Homo sapiens, UniProt P48729+Q96SW2).
T1 construct: The supernatant was aspirated as the extracted total cell protein; endogenous in cells; host or cells: human peripheral blood mononuclear cells (hPBMCs)
T1 sequence (P48729 whole entry): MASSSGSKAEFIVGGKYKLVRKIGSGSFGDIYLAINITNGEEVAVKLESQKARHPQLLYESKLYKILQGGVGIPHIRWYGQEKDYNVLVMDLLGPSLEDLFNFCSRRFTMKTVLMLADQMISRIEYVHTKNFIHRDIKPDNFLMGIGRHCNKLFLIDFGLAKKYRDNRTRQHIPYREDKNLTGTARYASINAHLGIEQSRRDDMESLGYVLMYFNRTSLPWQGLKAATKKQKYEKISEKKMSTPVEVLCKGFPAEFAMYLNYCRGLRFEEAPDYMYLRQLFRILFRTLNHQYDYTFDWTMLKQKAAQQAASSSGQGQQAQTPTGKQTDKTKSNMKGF
T1 sequence (Q96SW2 whole entry): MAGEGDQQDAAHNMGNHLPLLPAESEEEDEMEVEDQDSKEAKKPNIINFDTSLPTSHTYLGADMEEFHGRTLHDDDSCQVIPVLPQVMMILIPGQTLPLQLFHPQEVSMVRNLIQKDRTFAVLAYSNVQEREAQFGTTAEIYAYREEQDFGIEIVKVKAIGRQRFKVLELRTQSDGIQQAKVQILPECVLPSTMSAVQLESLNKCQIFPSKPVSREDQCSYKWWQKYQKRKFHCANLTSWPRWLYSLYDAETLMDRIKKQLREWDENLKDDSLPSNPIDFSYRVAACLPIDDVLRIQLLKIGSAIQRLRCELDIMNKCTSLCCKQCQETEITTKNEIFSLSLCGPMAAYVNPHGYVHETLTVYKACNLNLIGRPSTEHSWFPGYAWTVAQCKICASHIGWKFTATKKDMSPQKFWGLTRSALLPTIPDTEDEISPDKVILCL
T1 sequence (Q16531 whole entry partner): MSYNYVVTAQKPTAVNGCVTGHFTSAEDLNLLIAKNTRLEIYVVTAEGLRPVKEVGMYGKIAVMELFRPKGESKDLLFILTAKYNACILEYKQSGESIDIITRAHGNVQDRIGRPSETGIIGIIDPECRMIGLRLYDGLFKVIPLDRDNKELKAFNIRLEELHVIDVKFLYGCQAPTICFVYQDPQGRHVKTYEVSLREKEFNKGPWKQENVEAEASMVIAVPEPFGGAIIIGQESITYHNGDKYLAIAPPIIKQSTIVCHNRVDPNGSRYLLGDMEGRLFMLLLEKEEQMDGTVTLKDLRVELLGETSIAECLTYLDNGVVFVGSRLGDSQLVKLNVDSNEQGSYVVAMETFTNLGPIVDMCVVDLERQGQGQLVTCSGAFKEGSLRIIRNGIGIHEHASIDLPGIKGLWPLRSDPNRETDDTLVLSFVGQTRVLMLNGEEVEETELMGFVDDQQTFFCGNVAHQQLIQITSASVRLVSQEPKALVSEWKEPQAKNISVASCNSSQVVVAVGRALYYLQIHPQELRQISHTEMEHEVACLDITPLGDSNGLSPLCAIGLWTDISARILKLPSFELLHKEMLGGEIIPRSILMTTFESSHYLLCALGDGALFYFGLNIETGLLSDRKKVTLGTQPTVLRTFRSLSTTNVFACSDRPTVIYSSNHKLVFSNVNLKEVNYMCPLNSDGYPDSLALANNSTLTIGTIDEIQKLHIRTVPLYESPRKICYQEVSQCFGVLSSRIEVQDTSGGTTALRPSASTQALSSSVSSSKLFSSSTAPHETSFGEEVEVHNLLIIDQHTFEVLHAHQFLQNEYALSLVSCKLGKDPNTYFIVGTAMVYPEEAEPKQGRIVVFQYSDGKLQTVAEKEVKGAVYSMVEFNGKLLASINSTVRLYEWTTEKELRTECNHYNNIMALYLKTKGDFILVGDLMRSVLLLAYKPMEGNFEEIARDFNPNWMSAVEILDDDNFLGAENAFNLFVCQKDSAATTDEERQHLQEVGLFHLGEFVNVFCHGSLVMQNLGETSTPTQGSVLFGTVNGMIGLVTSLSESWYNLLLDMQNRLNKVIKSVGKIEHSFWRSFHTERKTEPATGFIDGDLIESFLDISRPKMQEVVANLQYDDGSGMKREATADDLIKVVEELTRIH
The assay can be described thus: Western blot degradation of CK1α in hPBMCs (24 h). The method, boiled down: (§1)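 hPBMCs (1×10^6 cells/mL) exposed to compound at 50 nM and 500 nM for 24 h, DMSO as reference. Lysates run on SDS-PAGE and immunoblotted. Band grayscale normalized to internal control gives % protein remaining; DC50 from fitted concentration-response of band intensity versus DMSO.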
On the technique in general: Immunoblotting shows a protein as a band on a membrane.

The target in another assay is T2, GSPT1 (Homo sapiens, UniProt P15170+Q96SW2).
T2 construct: The supernatant was aspirated as the extracted total cell protein; endogenous in cells; host or cells: human peripheral blood mononuclear cells (hPBMCs)
The assay can be described thus: Western blot degradation of GSPT1 in hPBMCs (24 h). The method, boiled down:
as §1

A further assay has as its target T3, IKZF3 (Homo sapiens, UniProt Q96SW2+Q9UKT9).
T3 construct: The supernatant was aspirated as the extracted total cell protein; endogenous in cells; host or cells: human peripheral blood mononuclear cells (hPBMCs)
The assay can be described thus: Western blot degradation of IKZF3 in hPBMCs (24 h). The method, boiled down: as §1

The target in a further assay is T4, IKZF1 (Homo sapiens, UniProt Q13422+Q96SW2).
T4 construct: The supernatant was aspirated as the extracted total cell protein; endogenous in cells; host or cells: human peripheral blood mononuclear cells (hPBMCs)
T4 sequence (Q13422 whole entry): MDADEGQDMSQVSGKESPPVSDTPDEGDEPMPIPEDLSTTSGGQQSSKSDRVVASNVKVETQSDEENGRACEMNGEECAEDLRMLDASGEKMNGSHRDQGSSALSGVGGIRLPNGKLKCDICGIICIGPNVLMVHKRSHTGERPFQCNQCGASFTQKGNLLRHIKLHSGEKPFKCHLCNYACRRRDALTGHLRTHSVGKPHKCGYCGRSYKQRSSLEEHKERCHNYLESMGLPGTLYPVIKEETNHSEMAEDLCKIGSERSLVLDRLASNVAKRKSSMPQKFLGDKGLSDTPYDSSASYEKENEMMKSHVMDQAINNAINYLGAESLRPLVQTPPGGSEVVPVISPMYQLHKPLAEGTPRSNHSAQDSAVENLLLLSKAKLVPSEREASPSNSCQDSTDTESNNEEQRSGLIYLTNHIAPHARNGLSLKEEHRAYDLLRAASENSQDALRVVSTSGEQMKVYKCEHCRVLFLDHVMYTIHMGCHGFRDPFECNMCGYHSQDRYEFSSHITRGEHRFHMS
T4 sequence (Q96SW2 whole entry): as the sequence (Q96SW2 whole entry) above
T4 sequence (Q16531 whole entry partner): as the sequence (Q16531 whole entry partner) above
As to the kind of experiment: Western blot degradation of IKZF1 in hPBMCs (24 h). The method, boiled down: as §1

The target in a further assay is T5, WEE1 (Homo sapiens, UniProt P30291+Q96SW2).
T5 construct: The supernatant was aspirated as the extracted total cell protein; endogenous in cells; host or cells: human peripheral blood mononuclear cells (hPBMCs)
T5 sequence (P30291 whole entry): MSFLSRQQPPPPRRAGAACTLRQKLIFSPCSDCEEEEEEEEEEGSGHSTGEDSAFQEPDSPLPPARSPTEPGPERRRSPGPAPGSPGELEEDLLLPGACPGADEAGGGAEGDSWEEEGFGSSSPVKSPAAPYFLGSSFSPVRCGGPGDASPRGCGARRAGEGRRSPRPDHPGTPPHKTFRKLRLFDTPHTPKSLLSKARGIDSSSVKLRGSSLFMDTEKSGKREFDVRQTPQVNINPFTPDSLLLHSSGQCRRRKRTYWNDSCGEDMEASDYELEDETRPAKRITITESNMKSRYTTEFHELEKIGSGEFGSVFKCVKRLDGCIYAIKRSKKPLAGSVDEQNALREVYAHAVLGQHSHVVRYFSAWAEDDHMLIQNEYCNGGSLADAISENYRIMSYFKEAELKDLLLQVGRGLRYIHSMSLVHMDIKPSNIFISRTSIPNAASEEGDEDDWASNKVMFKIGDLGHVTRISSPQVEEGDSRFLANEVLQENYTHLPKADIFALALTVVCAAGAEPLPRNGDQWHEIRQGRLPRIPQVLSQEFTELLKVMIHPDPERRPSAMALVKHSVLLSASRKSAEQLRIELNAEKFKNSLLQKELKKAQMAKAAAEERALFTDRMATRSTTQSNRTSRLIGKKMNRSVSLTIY
T5 sequence (Q96SW2 whole entry): as the sequence (Q96SW2 whole entry) above
T5 sequence (Q16531 whole entry partner): as the sequence (Q16531 whole entry partner) above
As to the kind of experiment: Western blot degradation of WEE1 in hPBMCs (24 h). In a few lines:
as §1

The next assay has as its target T6, IKZF2 (Homo sapiens, UniProt Q96SW2+Q9UKS7).
T6 construct: The supernatant was aspirated as the extracted total cell protein; endogenous in cells; host or cells: human peripheral blood mononuclear cells (hPBMCs)
As to the kind of experiment: Western blot degradation of IKZF2 in hPBMCs (24 h). In a few lines:
as §1

T3 sequence (Q9UKT9 whole entry): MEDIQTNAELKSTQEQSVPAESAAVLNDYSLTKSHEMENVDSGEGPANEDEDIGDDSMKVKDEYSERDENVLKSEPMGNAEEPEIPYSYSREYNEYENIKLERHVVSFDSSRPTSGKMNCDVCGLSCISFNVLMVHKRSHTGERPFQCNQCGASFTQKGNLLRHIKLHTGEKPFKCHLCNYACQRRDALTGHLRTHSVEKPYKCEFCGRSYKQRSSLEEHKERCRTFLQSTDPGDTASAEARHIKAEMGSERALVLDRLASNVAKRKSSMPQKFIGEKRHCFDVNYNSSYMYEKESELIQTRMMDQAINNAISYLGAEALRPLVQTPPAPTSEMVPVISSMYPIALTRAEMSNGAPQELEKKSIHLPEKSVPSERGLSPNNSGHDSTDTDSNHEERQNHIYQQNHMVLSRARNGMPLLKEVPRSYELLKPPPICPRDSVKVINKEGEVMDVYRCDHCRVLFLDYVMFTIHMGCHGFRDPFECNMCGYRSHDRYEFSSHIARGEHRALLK
T3 sequence (Q96SW2 whole entry): as the sequence (Q96SW2 whole entry) above
T3 sequence (Q16531 whole entry partner): as the sequence (Q16531 whole entry partner) above
T6 sequence (Q9UKS7 whole entry): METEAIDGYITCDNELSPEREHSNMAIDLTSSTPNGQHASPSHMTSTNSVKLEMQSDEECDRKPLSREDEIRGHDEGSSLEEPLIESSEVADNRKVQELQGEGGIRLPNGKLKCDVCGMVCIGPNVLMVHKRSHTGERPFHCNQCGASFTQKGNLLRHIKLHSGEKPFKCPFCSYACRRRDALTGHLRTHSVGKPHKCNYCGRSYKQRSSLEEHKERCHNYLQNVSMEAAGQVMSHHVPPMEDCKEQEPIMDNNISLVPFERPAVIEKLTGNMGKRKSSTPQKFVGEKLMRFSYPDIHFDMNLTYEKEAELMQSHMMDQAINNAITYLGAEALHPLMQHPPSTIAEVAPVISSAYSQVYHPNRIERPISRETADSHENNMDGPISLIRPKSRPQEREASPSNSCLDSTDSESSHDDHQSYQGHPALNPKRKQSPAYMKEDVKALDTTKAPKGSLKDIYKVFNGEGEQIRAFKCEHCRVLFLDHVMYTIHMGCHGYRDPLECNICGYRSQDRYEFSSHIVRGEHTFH
T6 sequence (Q96SW2 whole entry): as the sequence (Q96SW2 whole entry) above
T6 sequence (Q16531 whole entry partner): as the sequence (Q16531 whole entry partner) above

With `O=C1CCN(N2Cc3cc(CN4CC(C5CCOc6cc(F)ccc65)C4)ccc3C2=O)C(=O)N1` (stereo not drawn) [GT-07690, 1-(5-((3-(7-fluorochroman-4-yl)azetidin-1-yl)methyl)-1-oxoisoindolin-2-yl)dihydropyrimidine-2,4(1H,3H)-dione], the “CK1α substrate protein remaining %” value at CK1α was “A (0% ≤ substrate protein remaining % ≤80%)”. Also, the “GSPT1 substrate protein remaining %” value on GSPT1 is listed as “A (0% ≤ substrate protein remaining % ≤80%)”. Moreover, the “IKZF3 substrate protein remaining %” value on IKZF3 was “B (80%< substrate protein remaining % ≤100%)”. For the same compound, on IKZF1, the “IKZF1 substrate protein remaining %” value is “B (80%< substrate protein remaining % ≤100%)”. For the same compound, the “WEE1 substrate protein remaining %” value at WEE1 is recorded as “B (80%< substrate protein remaining % ≤100%)”. Also, at IKZF2, the “IKZF2 substrate protein remaining %” value was “A (0% ≤ substrate protein remaining % ≤80%)”.
As for `O=C1CCN(N2Cc3cc(CN4CC(c5ccnc6cc(F)ccc56)C4)ccc3C2=O)C(=O)N1` [GT-07711, 1-(5-((3-(7-fluoroquinolin-4-yl)azetidin-1-yl)methyl)-1-oxoisoindolin-2-yl)dihydropyrimidine-2,4(1H,3H)-dione], the “CK1α substrate protein remaining %” value on CK1α is on record as “A (0% ≤ substrate protein remaining % ≤80%)”. The “GSPT1 substrate protein remaining %” value on GSPT1 is given as “A (0% ≤ substrate protein remaining % ≤80%)”. The “IKZF3 substrate protein remaining %” value at IKZF3 is on record as “A (0% ≤ substrate protein remaining % ≤80%)”. The “IKZF1 substrate protein remaining %” value at IKZF1 is “A (0% ≤ substrate protein remaining % ≤80%)”. For the same compound, the “WEE1 substrate protein remaining %” value on WEE1 is listed as “B (80%< substrate protein remaining % ≤100%)”. Moreover, the “IKZF2 substrate protein remaining %” value at IKZF2 was “A (0% ≤ substrate protein remaining % ≤80%)”.
Consider `O=C1CCN(N2C(=O)c3ccc(CN4CC(C5CCOc6cc(F)ccc65)C4)cc3C2=O)C(=O)N1` (stereo not drawn) [GT-07715, 2-(2,4-dioxotetrahydropyrimidin-1(2H)-yl)-5-((3-(7-fluorochroman-4-yl)azetidin-1-yl)methyl)isoindoline-1,3-dione], for which the “CK1α substrate protein remaining %” value on CK1α is “A (0% ≤ substrate protein remaining % ≤80%)”. Besides, on GSPT1, the “GSPT1 substrate protein remaining %” value is on record as “A (0% ≤ substrate protein remaining % ≤80%)”. For the same compound, at IKZF3, the “IKZF3 substrate protein remaining %” value is on record as “B (80%< substrate protein remaining % ≤100%)”. Also, the “IKZF1 substrate protein remaining %” value at IKZF1 was “B (80%< substrate protein remaining % ≤100%)”. Further, the “WEE1 substrate protein remaining %” value at WEE1 is “B (80%< substrate protein remaining % ≤100%)”. The “IKZF2 substrate protein remaining %” value at IKZF2 was “B (80%< substrate protein remaining % ≤100%)”.
`O=C1CCN(N2C(=O)c3ccc(CN4CC(c5ccnc6cc(F)ccc56)C4)cc3C2=O)C(=O)N1` [GT-07718, 2-(2,4-dioxotetrahydropyrimidin-1(2H)-yl)-5-((3-(7-fluoroquinolin-4-yl)azetidin-1-yl)methyl)isoindoline-1,3-dione]: the “CK1α substrate protein remaining %” value at CK1α was “A (0% ≤ substrate protein remaining % ≤80%)”. The “GSPT1 substrate protein remaining %” value at GSPT1 is listed as “A (0% ≤ substrate protein remaining % ≤80%)”. In addition, the “IKZF3 substrate protein remaining %” value on IKZF3 is recorded as “A (0% ≤ substrate protein remaining % ≤80%)”. Further, the “IKZF1 substrate protein remaining %” value at IKZF1 is on record as “B (80%< substrate protein remaining % ≤100%)”. For the same compound, on WEE1, the “WEE1 substrate protein remaining %” value is on record as “B (80%< substrate protein remaining % ≤100%)”. In addition, the “IKZF2 substrate protein remaining %” value on IKZF2 is recorded as “B (80%< substrate protein remaining % ≤100%)”.
In the case of `O=C1CCN(N2Cc3cc(CN4CCn5c(nnc5C(F)(F)F)C4)ccc3C2=O)C(=O)N1` [GT-07719, 1-(1-oxo-5-((3-(trifluoromethyl)-5,6-dihydro-[1,2,4]triazolo[4,3-a]pyrazin-7 (8H)-yl)methyl)isoindolin-2-yl)dihydropyrimidine-2,4(1H,3H)-dione], the “CK1α substrate protein remaining %” value on CK1α was “A (0% ≤ substrate protein remaining % ≤80%)”. Also, on GSPT1, the “GSPT1 substrate protein remaining %” value was “A (0% ≤ substrate protein remaining % ≤80%)”. Also, at IKZF3, the “IKZF3 substrate protein remaining %” value is “A (0% ≤ substrate protein remaining % ≤80%)”. Also, the “IKZF1 substrate protein remaining %” value on IKZF1 is “B (80%< substrate protein remaining % ≤100%)”. Also, the “WEE1 substrate protein remaining %” value on WEE1 is recorded as “B (80%< substrate protein remaining % ≤100%)”. The “IKZF2 substrate protein remaining %” value at IKZF2 is reported as “A (0% ≤ substrate protein remaining % ≤80%)”.
